From ChEMBL document CHEMBL4673282, “Identification of a New Heterocyclic Scaffold for Inhibitors of the Polo-Box Domain of Polo-like Kinase 1” (J Med Chem, 2020)
Converted amounts (≈) assume the structure as drawn.

What was measured:
[1] = Half life in rat liver microsomes at 1 uM measured up to 60 mins in presence of NADPH generating system; conditions: 1 h
[2] = Aqueous solubility of compound; type: physicochemical; conditions: buffer

SMILES | t1/2 [1] | solubility [2]
O=C(Cc1ccccc1)NCCCn1c(=O)c2cc(F)ccc2n2c(=S)[nH]nc12 | 18.7 min | –
O=c1c2cc(F)ccc2n2c(=S)[nH]nc2n1CCc1ccncc1 | > 30 min | 10.9 µg/mL (≈ 31.9 µM)
CCCn1c(=O)c2cc(F)ccc2n2c(=S)[nH]nc12 | > 30 min | > 28 µg/mL
NCCOCCOCCOCCC(=O)NCCCn1c(=O)c2cc(F)ccc2n2c(=S)[nH]nc12 | > 30 min | 36.1 µg/mL (≈ 72.7 µM)
O=C(Cc1ccc(O)cc1)NCCCn1c(=O)c2cc(F)ccc2n2c(=S)[nH]nc12 | > 30 min | –
O=c1c2cc(I)ccc2n2c(=S)[nH]nc2n1CCc1ccccc1 | > 30 min | < 1 µg/mL
CN1CCCC1CCn1c(=O)c2cc(F)ccc2n2c(=S)[nH]nc12 (racemic) | > 30 min | 17.8 µg/mL (≈ 51.2 µM)
CC(C)(C)OC(=O)CC[C@H](N)C(=O)NCCOCCOCCOCCOCCC(=O)NCCCn1c(=O)c2cc(F)ccc2n2c(=S)[nH]nc12 | > 30 min | > 107 µg/mL
CC(C)(C)OC(=O)CC[C@@H](NC(=O)OC(C)(C)C)C(=O)NCCCn1c(=O)c2cc(F)ccc2n2c(=S)[nH]nc12 | 25.1 min | 20.4 µg/mL (≈ 35.3 µM)
N#Cc1ccccc1CC(=O)NCCCn1c(=O)c2cc(F)ccc2n2c(=S)[nH]nc12 | > 30 min | –
O=C(Cc1cccc(Cl)c1)NCCCn1c(=O)c2cc(F)ccc2n2c(=S)[nH]nc12 | 8.4 min | > 66 µg/mL
Cc1ccc2c(c1)c(=O)n(CCc1ccccc1)c1n[nH]c(=S)n21 | > 30 min | < 1 µg/mL
O=C(Cc1cccc(C(F)(F)F)c1)NCCCn1c(=O)c2cc(F)ccc2n2c(=S)[nH]nc12 | 17.3 min | –
CCCn1c(=O)c2ccccc2n2c(=S)[nH]nc12 | > 30 min | –
O=C(CC1CCNCC1)NCCCn1c(=O)c2cc(F)ccc2n2c(=S)[nH]nc12 | > 30 min | 37.5 µg/mL (≈ 89.6 µM)
O=C(Cc1ccccc1C(F)(F)F)NCCCn1c(=O)c2cc(F)ccc2n2c(=S)[nH]nc12 | 3.7 min | –
CC(C)(C)OC(=O)N1CCN(CCn2c(=O)c3cc(F)ccc3n3c(=S)[nH]nc23)CC1 | 26.3 min | 20.5 µg/mL (≈ 45.7 µM)
O=C(Cc1ccc(F)cc1)NCCCn1c(=O)c2cc(F)ccc2n2c(=S)[nH]nc12 | 26.3 min | –
Cc1ccc(CC(=O)NCCCn2c(=O)c3cc(F)ccc3n3c(=S)[nH]nc23)cc1 | 23.9 min | –

SMILES | t1/2 [1] | solubility [2]
CC(C)n1c(=O)c2ccccc2n2c(=S)[nH]nc12 | – | 19.5 µg/mL (≈ 74.9 µM)
Cc1nnc2n(CCc3ccccc3)c(=O)c3cc(F)ccc3n12 | 10.7 min | 11 µg/mL (≈ 34.1 µM)
O=c1c2ncccc2n2c(=S)[nH]nc2n1CCc1ccccc1 | > 30 min | 26.9 µg/mL (≈ 83.2 µM)
CC(C)(C)OC(=O)CC[C@H](NC(=O)OC(C)(C)C)C(=O)NCCCn1c(=O)c2cc(F)ccc2n2c(=S)[nH]nc12 | 3.8 min | 41.6 µg/mL (≈ 71.9 µM)
NCCCn1c(=O)c2cccc(F)c2n2c(=S)[nH]nc12 | > 30 min | –
N[C@@H](CCC(=O)O)C(=O)NCCOCCOCCOCCOCCC(=O)NCCCn1c(=O)c2cc(F)ccc2n2c(=S)[nH]nc12 | > 30 min | > 99 µg/mL
CC(=O)NCCn1c(=O)c2cc(F)ccc2n2c(=S)[nH]nc12 | > 30 min | > 47 µg/mL
O=C(NCCCn1c(=O)c2cc(F)ccc2n2c(=S)[nH]nc12)c1ccc(Cn2ccnc2)cc1 | > 30 min | –
CCn1c(=O)c2cc(F)ccc2n2c(=S)[nH]nc12 | > 30 min | > 39 µg/mL
CC(C)(C)OC(=O)NCCOCCOCCOCCC(=O)NCCCn1c(=O)c2cc(F)ccc2n2c(=S)[nH]nc12 | 27.9 min | > 88 µg/mL
O=c1c2cc(F)ccc2n2c(=S)[nH]nc2n1CCc1ccccc1Cl | 22.8 min | 3 µg/mL (≈ 8 µM)
CS(=O)(=O)NCCn1c(=O)c2cc(F)ccc2n2c(=S)[nH]nc12 | > 30 min | > 53 µg/mL
O=c1c2cc(F)ccc2n2c(=S)[nH]nc2n1CCCc1ccccc1 | 8.8 min | < 1 µg/mL
CC(C)OCCCn1c(=O)c2cc(Cl)ccc2n2c(=S)[nH]nc12 | – | 8.6 µg/mL (≈ 24.4 µM)
COc1ccc(CC(=O)NCCCn2c(=O)c3cc(F)ccc3n3c(=S)[nH]nc23)cc1 | > 30 min | –
NCCn1c(=O)c2cc(F)ccc2n2c(=S)[nH]nc12 | > 30 min | > 41 µg/mL
O=C(NCCCn1c(=O)c2cc(F)ccc2n2c(=S)[nH]nc12)C1CCNCC1 | > 30 min | > 60 µg/mL
CC(C)(C)OC(=O)Nc1ccc(CC(=O)NCCCn2c(=O)c3cc(F)ccc3n3c(=S)[nH]nc23)cc1 | > 30 min | –
O=C(Cc1cccc(F)c1)NCCCn1c(=O)c2cc(F)ccc2n2c(=S)[nH]nc12 | 26.5 min | > 63 µg/mL

SMILES | t1/2 [1] | solubility [2]
N[C@@H](CCC(=O)O)C(=O)NCCCn1c(=O)c2cc(F)ccc2n2c(=S)[nH]nc12 | > 30 min | 32 µg/mL (≈ 75.8 µM)
O=C(Cc1ccccn1)NCCCn1c(=O)c2cc(F)ccc2n2c(=S)[nH]nc12 | > 30 min | –
O=c1c2ccccc2n2c(=O)[nH]nc2n1CCc1ccccc1 | – | < 1 µg/mL
O=C(NCCCn1c(=O)c2cc(F)ccc2n2c(=S)[nH]nc12)C1CCCNC1 (racemic) | > 30 min | 29.6 µg/mL (≈ 73.2 µM)
O=c1c2cccnc2n2c(=S)[nH]nc2n1CCc1ccccc1 | > 30 min | 4.9 µg/mL (≈ 15.2 µM)
CC(C)(C)OC(=O)CC[C@H](N)C(=O)NCCCn1c(=O)c2cc(F)ccc2n2c(=S)[nH]nc12 | > 30 min | 37.5 µg/mL (≈ 78.4 µM)
O=C(Cc1ccc(Br)cc1)NCCCn1c(=O)c2cc(F)ccc2n2c(=S)[nH]nc12 | 20.6 min | < 1 µg/mL
CS(=O)(=O)NCCCn1c(=O)c2cc(F)ccc2n2c(=S)[nH]nc12 | > 30 min | 34 µg/mL (≈ 91.5 µM)
CC(C)NC(=O)CCn1c(=O)c2cc(Cl)ccc2n2c(=S)[nH]nc12 | – | 8.1 µg/mL (≈ 22.1 µM)
O=C(NCCCn1c(=O)c2cc(F)ccc2n2c(=S)[nH]nc12)C1CCCCN1 (racemic) | > 30 min | > 60 µg/mL
N#Cc1ccc(CC(=O)NCCCn2c(=O)c3cc(F)ccc3n3c(=S)[nH]nc23)cc1 | > 30 min | –
O=c1c2cc(N3CCOCC3)ccc2n2c(=S)[nH]nc2n1CCc1ccccc1 | > 30 min | 3.4 µg/mL (≈ 8.34 µM)
CCCn1c(=O)c2ccccc2n2c(=S)n(CN(C)C3CC3)nc12 | – | Insoluble
CCOP(=O)(CCn1c(=O)c2cc(F)ccc2n2c(=S)[nH]nc12)OCC | > 30 min | > 59 µg/mL
O=C(Cc1cccnc1)NCCCn1c(=O)c2cc(F)ccc2n2c(=S)[nH]nc12 | > 30 min | –
O=c1c2cc(F)ccc2n2c(=S)[nH]nc2n1CCP(=O)(O)O | – | > 51 µg/mL
CCCn1c(=O)c2ccccc2n2c(=S)n(CN(CC)CC3CC3)nc12 | – | 8.7 µg/mL (≈ 23.4 µM)
CC(C)CNC(=O)CCn1c(=O)c2ccccc2n2c(=S)[nH]nc12 | – | 30.8 µg/mL (≈ 89.2 µM)
